Source: patent US20160158236A1, “PHARMACEUTICAL COMPOSITION COMPRISING A TRPA1 ANTAGONIST AND A STEROID” (GLENMARK PHARMACEUTICALS S.A., priority 2011, published 2016)

What was measured:
[1] = test system: ovalbumin sensitized female Balb/C mice; test: Ovalbumin induced inflammation in ovalbumin sensitized mice (Compound 52 and prednisolone), BAL cell counts; format: in vivo; conditions: 1 mg/Kg p.o. (combination: 1 mg/Kg of each compound); BAL 24 hours after ovalbumin challenge
Procedure: Sensitized mice were randomly assigned to different treatment groups. […] Animals were administered Compound 52 orally 24 hrs before first ovalbumin challenge and 2 hrs before ovalbumin challenge from Day-11 to 13. Animals were administered Prednisolone orally 24 hrs before first ovalbumin challenge and 2 hrs before ovalbumin challenge from Day-11 to 13. The animals were divided into groups as per Table 2.
Broncho Alveolar Lavage (BAL) was performed at 24 hours after challenge with ovalbumin. Animals were anesthetized with an overdose of urethane, trachea was exposed and BAL was performed 4 times using 0.3 mL PBS. All aspirates of BAL were pooled and total number of cells determined using a hemocytometer. The BAL was centrifuged, and the cell pellet was used for preparation of smears. Slides were stained with Giemsa stain and a differential cell count of 500 cells based on standard morphology was performed manually.
Calculations: The total number of eosinophils in each BAL sample was calculated using the formula: […]
Percent inhibition of eosinophils was calculated using the following formula: […]

human TRPA1 receptor = target: T1, human TRPA1 receptor (Homo sapiens, UniProt O75762); test: Inhibition of AITC induced cellular uptake of radioactive calcium in human TRPA1 expressing CHO cells; format: cell-based; conditions: read-out: hTRPA1 IC50 values
T1 construct: expressed in transfected cells; host or cells: CHO cells
T1 sequence (O75762 whole entry): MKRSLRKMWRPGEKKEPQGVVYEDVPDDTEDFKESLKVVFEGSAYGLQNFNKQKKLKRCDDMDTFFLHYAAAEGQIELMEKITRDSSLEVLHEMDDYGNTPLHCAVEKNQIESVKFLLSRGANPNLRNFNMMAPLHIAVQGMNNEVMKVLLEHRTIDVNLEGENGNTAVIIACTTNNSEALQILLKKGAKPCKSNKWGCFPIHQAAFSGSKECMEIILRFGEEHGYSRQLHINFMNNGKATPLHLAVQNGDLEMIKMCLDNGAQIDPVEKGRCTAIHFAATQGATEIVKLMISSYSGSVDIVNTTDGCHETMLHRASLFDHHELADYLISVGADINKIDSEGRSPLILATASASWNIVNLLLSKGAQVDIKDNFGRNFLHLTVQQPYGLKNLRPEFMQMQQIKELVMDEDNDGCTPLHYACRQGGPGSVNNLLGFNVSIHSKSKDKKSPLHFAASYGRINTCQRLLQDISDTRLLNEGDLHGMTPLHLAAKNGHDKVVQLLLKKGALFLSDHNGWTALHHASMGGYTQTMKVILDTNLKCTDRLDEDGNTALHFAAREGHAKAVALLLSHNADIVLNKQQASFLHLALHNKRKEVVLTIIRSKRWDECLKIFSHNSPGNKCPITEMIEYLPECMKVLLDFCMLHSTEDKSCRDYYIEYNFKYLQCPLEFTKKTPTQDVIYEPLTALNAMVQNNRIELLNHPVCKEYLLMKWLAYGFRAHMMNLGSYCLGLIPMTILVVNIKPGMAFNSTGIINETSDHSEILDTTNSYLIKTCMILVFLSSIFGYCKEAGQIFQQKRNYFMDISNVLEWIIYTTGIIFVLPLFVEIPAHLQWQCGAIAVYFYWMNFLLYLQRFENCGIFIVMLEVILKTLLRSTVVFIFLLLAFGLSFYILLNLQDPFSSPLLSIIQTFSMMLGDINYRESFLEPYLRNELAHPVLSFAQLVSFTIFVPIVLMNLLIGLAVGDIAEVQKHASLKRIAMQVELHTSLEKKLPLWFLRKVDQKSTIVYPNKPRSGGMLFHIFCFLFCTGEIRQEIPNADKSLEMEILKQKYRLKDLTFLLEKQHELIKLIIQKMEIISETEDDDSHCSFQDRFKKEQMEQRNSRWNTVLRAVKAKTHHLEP
Procedure: Test compound solution is prepared in a suitable solvent. Human TRPA1 expressing CHO cells are grown in suitable medium. Cells are treated with test compounds followed by addition of AITC. Cells are washed, lysed and the radioactivity in the lysate is measured in Packard Top count after addition of liquid scintillant.
The concentration response curves for compounds are plotted as a % of maximal response obtained in the absence of test antagonist, and the IC50 values are calculated from such concentration response curve by nonlinear regression analysis using GraphPad PRISM software.

Row | IC50 (human TRPA1 receptor) [nM] | Compound | % Inhibition of cell in BALf [1] [%] | % Inhibition of eosinophils in BALf [1] [%] | Total cell number in BALf [1] | Total eosinophils in BALf [1]
1 |  | C[C@]12C=CC(=O)C=C1CC[C@@H]1[C@@H]2[C@@H](O)C[C@@]2(C)[C@H]1CC[C@]2(O)C(=O)CO [Prednisolone, reference compound] | 21 | 24 | 10.8 ± 1.0 | 5.6 ± 0.7
2 |  | Cn1c(=O)c2c(CC(=O)Nc3nc(-c4ccc(F)c(C(F)(F)F)c4F)cs3)csc2n(C)c1=O [Compound 52] | 10 | 21 | 12.2 ± 0.5 | 5.8 ± 0.5
3 | 21.9 | CC(C)C(N)C(=O)OCn1c(-c2ccc(F)c(C(F)(F)F)c2F)csc1=NC(=O)Cc1csc2c1c(=O)n(C)c(=O)n2C (stereo not drawn) [Compound 97] |  |  |  | 
